Literature values, collected in patent US20210008095A1, “METHODS FOR TREATING MUSCULAR DYSTROPHY” (Sarepta Therapeutics, Inc., priority 2015, published 2021).

Assays:
[1] = test system: patient cells; settings: cited from earlier work
[2] = test system: mouse model of DMD; settings: cited from earlier work

O=C1CN(/N=C/c2ccc(-c3ccc([N+](=O)[O-])cc3)o2)C(O)=N1 [dantrolene]
effect on antisense-mediated exon skipping [1]: enhance antisense-mediated exon skipping | effect on antisense-mediated exon skipping [2]: enhance antisense-mediated exon skipping
